Key:
cancer cell lines = conditions: cytotoxicity SAR; cited from earlier work
[1] = tested on: NCI H-460 human lung tumor cells; assay: Cytotoxicity in NCI H-460 human lung tumor cells, MTT reduction; assay type: cell-based
Experimental: Cytotoxicity was measured in NCI H-460 human lung tumor cells with cell viability being determined by MTT reduction.^[23] Cells were seeded in 96-well plates at 6000 cells/well in 180 μL of medium. After 24 h, the test chemicals were dissolved in DMSO and diluted into medium without fetal bovine serum and then added at […]. DMSO was less than 0.5% of the final concentration. After 48 h, the medium was removed and cell viability determined.

| Molecule | loss of activity compared to apratoxin A (cancer cell lines) | activity compared to apratoxin A (cancer cell lines) | further results |
| --- | --- | --- | --- |
| CC[C@H](C)[C@@H]1NC(=O)[C@H](C)N(C)C(=O)[C@H](Cc2ccc(OC)cc2)NC(=O)/C(C)=C/[C@H]2CSC(=N2)[C@@H](C)[C@@H](O)C[C@H](C)C[C@@H](C(C)(C)C)OC(=O)[C@@H]2CCCN2C1=O [apratoxin B] | 30 to 40 fold | – | – |
| CC[C@H](C)[C@H]1C(=O)N2CCC[C@H]2C(=O)O[C@H]([C@@H](C)CC(C)(C)C)C[C@@H](C)C[C@H](O)[C@H](C)C2=N[C@@H](/C=C(\C)C(=O)N[C@@H](Cc3ccc(OC)cc3)C(=O)N(C)[C@@H](C)C(=O)N1C)CS2 [apratoxin D] | – | roughly equivalent activity | – |
| CC[C@H](C)[C@H]1C(=O)N2CCC[C@H]2C(=O)O[C@H](C(C)C)C[C@@H](C)C[C@H](O)[C@H](C)C2=N[C@@H](/C=C(\C)C(=O)N[C@@H](Cc3ccc(OC)cc3)C(=O)N(C)[C@@H](C)C(=O)N1C)CS2 [apratoxin C] | 2 fold | – | – |
| COc1ccc(C[C@@H]2NC(=O)/C(C)=C/C3CSC(=N3)[C@@H](C)[C@@H](O)C[C@H](C)C[C@@H](C(C)(C)C)OC(=O)[C@H](C)N(C)C(=O)[C@H](C(C)C)N(C)C(=O)[C@H](C)N(C)C2=O)cc1 (stereo partly shown) [apratoxin G] | – | – | IC50 ([1]; H-460 cancer cells, MTT, 48 h): 14 nM; reduction in activity compared to apratoxin F ([1]; N-methyl isoleucine exchanged for N-methyl valine): 7 fold |
| apratoxin E | – | only a modest loss of activity | – |
| (E)-34,35-dehydro-apratoxin A | 72-230 fold | – | – |

Reference: patent publication US8598313B2, “Compositions for ameliorating cell proliferative disorders and methods of making and using them” (priority 2010, dated 2013)
